Reference: ChEMBL document CHEMBL1140703, “Design, synthesis, and biological evaluation of classical and nonclassical 2-amino-4-oxo-5-substituted-6-methylpyrrolo[3,2-d]pyrimidines as dual thymidylate synthase and dihydrofolate reductase inhibitors” (J Med Chem, 2008)

Experiments:
[1] = target: Thymidylate synthase (Homo sapiens, UniProt P04818); test: Inhibition of human thymidylate synthase
[2] = target: Thymidylate synthase (Escherichia coli, UniProt C3SWJ7); test: Inhibition of Escherichia coli thymidylate synthase
Thymidylate synthase (Escherichia coli, UniProt C3SWJ7), sequence (C3SWJ7 whole entry): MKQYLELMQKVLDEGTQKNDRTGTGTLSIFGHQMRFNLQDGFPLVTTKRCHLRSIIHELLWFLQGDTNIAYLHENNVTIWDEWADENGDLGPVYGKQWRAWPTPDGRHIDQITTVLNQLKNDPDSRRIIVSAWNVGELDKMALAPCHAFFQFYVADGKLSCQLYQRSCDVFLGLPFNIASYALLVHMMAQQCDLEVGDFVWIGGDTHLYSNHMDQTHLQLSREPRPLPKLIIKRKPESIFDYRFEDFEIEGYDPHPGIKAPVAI

[3] = Inhibition of Toxoplasma gondii thymidylate synthase
[4] = Inhibition of Escherichia coli DHFR
[5] = Inhibition of Toxoplasma gondii DHFR
[6] = Selectivity ratio of IC50 for Toxoplasma gondii DHFR over IC50 for human recombinant DHFR
[7] = system: Escherichia coli; test: Inhibition of Escherichia coli DHFR at >[…] uM
[8] = target: T1, Dihydrofolate reductase (Homo sapiens, UniProt P00374)
T1 sequence (P00374 whole entry): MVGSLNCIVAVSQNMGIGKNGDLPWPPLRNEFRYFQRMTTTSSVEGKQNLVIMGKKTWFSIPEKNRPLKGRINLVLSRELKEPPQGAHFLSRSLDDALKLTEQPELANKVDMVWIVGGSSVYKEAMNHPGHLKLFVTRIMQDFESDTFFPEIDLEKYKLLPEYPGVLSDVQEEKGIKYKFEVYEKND

[9] = system: Escherichia coli; test: Inhibition of Escherichia coli DHFR at >30 uM
[10] = target: Thymidylate synthase (Escherichia coli) (UniProt C3SWJ7); test: Inhibition of Escherichia coli thymidylate synthase at >[…] uM
Thymidylate synthase (Escherichia coli), sequence (C3SWJ7 1-264): as the sequence (C3SWJ7 whole entry) above

[11] = target: Thymidylate synthase (Escherichia coli) (UniProt C3SWJ7); test: Inhibition of Escherichia coli thymidylate synthase >[…] uM
[12] = system: Toxoplasma gondii; test: Inhibition of Toxoplasma gondii thymidylate synthase at >[…] uM
[13] = target: Thymidylate synthase (Escherichia coli) (UniProt C3SWJ7); test: Inhibition of Escherichia coli thymidylate synthase at >20 uM
[14] = system: Toxoplasma gondii; test: Inhibition of Toxoplasma gondii thymidylate synthase at >20 uM
[15] = target: T2, Dihydrofolate reductase (Homo sapiens) (UniProt P00374); test: Inhibition of human recombinant DHFR at >[…] uM
T2 sequence (whole entry): T1 sequence (P00374 whole entry)

[16] = target: T2, Dihydrofolate reductase (Homo sapiens); test: Inhibition of human recombinant DHFR at >62 uM

Thymidylate synthase (Homo sapiens, UniProt P04818), sequence (P04818 whole entry): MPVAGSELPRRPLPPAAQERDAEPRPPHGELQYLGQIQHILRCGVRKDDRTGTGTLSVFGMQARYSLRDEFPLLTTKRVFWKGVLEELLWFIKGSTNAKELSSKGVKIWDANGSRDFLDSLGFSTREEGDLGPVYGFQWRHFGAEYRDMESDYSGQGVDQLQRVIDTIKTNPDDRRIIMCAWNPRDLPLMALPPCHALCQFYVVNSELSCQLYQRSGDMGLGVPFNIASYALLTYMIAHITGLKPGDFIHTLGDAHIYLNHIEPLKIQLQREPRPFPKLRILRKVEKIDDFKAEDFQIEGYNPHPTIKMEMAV

inhibition [7] | IC50 [8] | inhibition [9] | inhibition [16] | Structure (SMILES) | IC50 [1] | IC50 [2] | IC50 [3] | IC50 [4] | IC50 [5] | Ratio IC50 [6] | inhibition [10] | inhibition [11] | inhibition [12] | inhibition [13] | inhibition [14] | inhibition [15]
0% | > 35 µM | – | – | Cc1cc2nc(N)[nH]c(=O)c2n1Cc1ccc(Cl)cc1 | 2.9 µM | 1.5 µM | 17 µM | > 35 µM | 0.35 µM | > 100 | – | – | – | – | – | –
0% | > 32 µM | – | – | Cc1cc2nc(N)[nH]c(=O)c2n1Cc1ccc(Cl)c(Cl)c1 | 5.4 µM | 27 µM | 27 µM | > 32 µM | 1.6 µM | > 20 | – | – | – | – | – | –
– | > 35 µM | 10% | – | Cc1cc2nc(N)[nH]c(=O)c2n1Cc1ccc(Br)cc1 | 1.3 µM | 7.5 µM | 18 µM | > 30 µM | 0.27 µM | > 130 | – | – | – | – | – | –
0% | > 37 µM | – | – | Cc1cc2nc(N)[nH]c(=O)c2n1Cc1ccc(F)cc1 | 3.7 µM | 31 µM | 22 µM | > 37 µM | 1.8 µM | > 20.5 | – | – | – | – | – | –
– | > 54 µM | – | – | Cc1[nH]c2nc(N)[nH]c(=O)c2c1Sc1ccc([N+](=O)[O-])cc1 | – | – | – | – | – | – | – | – | – | – | – | –
0% | 33 µM | – | – | Cc1cc2nc(N)[nH]c(=O)c2n1Cc1ccc([N+](=O)[O-])cc1 | 1.4 µM | 14 µM | 28 µM | > 33 µM | 0.33 µM | 100 | – | – | – | – | – | –
– | > 62 µM | – | 0% | Cc1[nH]c2nc(N)[nH]c(=O)c2c1Sc1ccc(Cl)c(Cl)c1 | – | – | – | – | – | – | – | – | – | – | – | –
0% | > 35 µM | – | – | Cc1cc2nc(N)[nH]c(=O)c2n1Cc1ccc(OC(F)(F)F)cc1 | 1.3 µM | 7.5 µM | 13 µM | > 35 µM | 0.3 µM | > 117 | – | – | – | – | – | –

Structure (SMILES) | inhibition [7] | IC50 [8] | inhibition [9] | inhibition [16] | IC50 [1] | IC50 [2] | IC50 [3] | IC50 [4] | IC50 [5] | Ratio IC50 [6] | inhibition [10] | inhibition [11] | inhibition [12] | inhibition [13] | inhibition [14] | inhibition [15]
Cc1cc2nc(N)[nH]c(=O)c2n1Cc1ccncc1 | – | > 37 µM | – | – | 2.3 µM | 12 µM | 15 µM | 39 µM | 20 µM | > 1.8 | – | – | – | – | – | –
Cc1cc2nc(N)[nH]c(=O)c2n1Cc1cc(Cl)cc(Cl)c1 | 0% | > 31 µM | – | – | > 26 µM | > 26 µM | > 26 µM | > 31 µM | 15 µM | > 2.1 | 0% | 15% | 13% | – | – | –
Cc1cc2nc(N)[nH]c(=O)c2n1Cc1cc(Br)cc(Br)c1 | 0% | > 24 µM | – | – | 10 µM | > 20 µM | > 20 µM | > 24 µM | 24 µM | > 1 | – | – | – | 36% | 24% | 0%
Cc1cc2nc(N)[nH]c(=O)c2n1Cc1ccccc1 | – | > 39 µM | – | – | 20 µM | > 39 µM | > 39 µM | > 39 µM | 3.9 µM | > 10 | – | – | 0% | – | – | –
Cc1cc2nc(N)[nH]c(=O)c2n1Cc1ccc(C(=O)N[C@@H](CCC(=O)O)C(=O)O)cc1 | 23% | 0.12 µM | – | – | 0.046 µM | 0.069 µM | 0.23 µM | > 23 µM | 0.023 µM | 5.2 | – | – | – | – | – | –
COc1ccc(Cn2c(C)cc3nc(N)[nH]c(=O)c32)cc1 | 0% | > 35 µM | – | – | 1.5 µM | 15 µM | 17 µM | > 35 µM | 3.5 µM | > 10 | – | – | – | – | – | –
